Source: patent publication US20230028658A1, “EXPANDED DOSAGE REGIMENS FOR INTEGRIN INHIBITORS” (Pliant Therapeutics, Inc., priority 2021, published 2023)
One block for each compound: values may come before it.

Tests used:
[1] = target: recombinant human integrin αvβ6 (Homo sapiens, UniProt P06756+P18564); experiment: Solid phase integrin αvβ6 binding assay; conditions: read-out: αvβ6 Inhibition IC50 (nM) - range
Protocol: Microplates were coated with recombinant human integrin αvβ6 (2 μg/mL) in PBS (100 μL/well 25° C., overnight). The coating solution was removed, washed with wash buffer (0.05% Tween 20; 0.5 mM MnCl2; in 1×TBS). The plate was blocked with 200 μL/well of Block Buffer (1% BSA; 5% sucrose; 0.5 mM MnCl2; in 1×TBS) at 37° C. for 2 h. Dilutions of testing compounds and recombinant TGFβ1 LAP (0.67 μg/mL) in binding buffer (0.05% BSA; 2.5% sucrose; 0.5 mM MnCl2; in 1×TBS) were added. The plate was incubated for 2 hours at 25° C., washed, and incubated for 1 hour with Biotin-Anti-hLAP. Bound antibody was detected by peroxidase-conjugated streptavidin. The IC50 values for testing compounds were calculated by a four-parameter logistic regression.
The compounds tested were compound samples prepared according to procedures described in the Synthetic Examples section, with the stereochemical purity as indicated in the Examples.

[2] = system: Type I Collagen gene Col1a1; experiment: Col1a1 expression in lung slices versus DMSO control slices (FIG. 5A, 5B, 6A, 6C); assay type: cell-based; conditions: FIG. 6A; compared to the DMSO vehicle control slices
lung Col1a1 expression [3] = experiment: Precision cut lung slices, chronic bleomycin, comparison with nintedanib and pirfenidone (Example B10); assay type: cell-based, Mice (C57BL/6); conditions: chronic bleomycin PCLS, 7 days culture, vs DMSO vehicle; FIG. 6A
Protocol: (§1) Mice (C57BL/6) were administered 3 U/kg of bleomycin (Teva Pharmaceuticals; North Wales, Pa.) on Day 0 and 1 U/kg of bleomycin on days 14, 28, 42 and 56 via oropharyngeal aspiration while under anesthesia. At day 70, 14 days following the final bleomycin insult, precision cut lung slices were obtained. Following euthanization, 2% low gelling temp agarose was injected into the mouse lungs via the trachea. […] The lobes were then subjected to precision slicing to obtain samples for culture using a microtome (Compresstome VF-300-0Z, Precisionary; Greenville, N.C.). Individual slices were distributed in a multiwell culture plate and cultured for 7 days under control (DMSO) and test compound conditions. The viability of the slices over the course of culturing was confirmed by WST-1 assay of mitochondrial activity.
During the culture period, slices in the control group were treated with DMSO and slices in the test group were treated with a DMSO solution of one of: compound 5; nintedanib; pirfenidone; a combination of nintedanib and compound 5; a combination of pirfenidone and compound 5; or the small molecule ALK5 inhibitor. Compound 5 was […] effective to equal or exceed its respective IC50 values at αvβ6 and αvβ1. […] Nintendanib and pirfenidone were analyzed at concentrations 10× their reported therapeutic concentrations.

COL1A1 expression = experiment: PCLS from IPF lung tissue, seven days, COL1A1 expression; assay type: cell-based, human; conditions: PCLS from 5-7 IPF lung tissue samples, Compound 5 200 nM, nintedanib 75 nM, pirfenidone 50 μm, FIG. 6D
Protocol: PCLS from 5-7 idopathic pulmonary fibrosis (IPF) lung tissue samples were cultured for seven days with one of: DMSO; Compound 5 at 200 nM; nintedanib at 75 nM; pirfenidone at 50 μm; a combination of Compound 5 at 200 nM and nintedanib at 75 nM; a combination of Compound 5 at 200 nM and pirfenidone at 50 μm; or an Alk5 inhibitor at 1 μm. […] FIG. 6D is a bar graph showing relative expression of COL1A1 in precision cut lung slices (PCLS) from idopathic pulmonary fibrosis (IPF) lung tissue upon exposure to Compound 5, clinical standard of care compounds nintedanib (Nin) and pirfenidone (Pirf), and an ALK5 inhibitor, all versus DMSO control.
PCLS from a single IPF lung tissue sample were cultured for seven days with Compound 5 at concentrations of 200 pM, 2 nM, 60 nM, 200 nM, and 1 μM, along with 0.1% DMSO control and an Alk5 inhibitor at 1 μM. […] COL1A1 expression is also graphed for the PCLS in the presence of 0.1% DMSO control, and an Alk5 inhibitor at 1 μM.

[4] = system: Type I Collagen gene Col1a1 expression; experiment: Precision cut lung slices of mice under acute bleomycin exposure, Col1a1 expression; assay type: cell-based, Mice (C57BL/6); conditions: acute bleomycin PCLS, 3 days culture, normalized to DMSO; FIG. 5A
Protocol: Mice (C57BL/6) were administered 3 U/kg of bleomycin (Teva Pharmaceuticals; North Wales, Pa.) on day 0 via oropharyngeal aspiration while under anesthesia. On day 14, precision cut lung slices were obtained. Following euthanization, 2% low gelling temp agarose was injected into the mouse lungs via the trachea. […] The lobes were then subjected to precision slicing to obtain samples for culture using a microtome (Compresstome VF-300-0Z, Precisionary; Greenville, N.C.). Individual slices were distributed in a multiwell culture plate and cultured for 3 days under control (DMSO) and test compound conditions.

lung Col1a1 expression [5] = experiment: Precision cut lung slices of mice under chronic bleomycin exposure, Col1a1 expression (Example B9); assay type: cell-based, Mice (C57BL/6); conditions: chronic bleomycin PCLS, 7 days culture, normalized to DMSO; FIG. 5B
Protocol: as §1, with “after” for “following”
During the culture period, slices in the control group were treated with DMSO and slices in the test group were treated with a DMSO solution of one of: the selective antibody αvβ6 inhibitor 3G9; the αvβ1-selective small molecule inhibitor; a combination of the selective antibody αvβ6 inhibitor 3G9 and the αvβ1-selective small molecule inhibitor; compound 5; and the small molecule ALK5 inhibitor. The selective αvβ1 and αvβ6 integrin inhibitors were analyzed at ≥their respective IC90 concentrations for inhibition of TGF-beta activation. […]

lung Col1a1 expression [6] = experiment: Precision cut lung slices from human IPF explants, 3 days, Col1a1 expression; assay type: cell-based; conditions: human IPF PCLS, 3G9 ≥400 ng/mL, compound 5 179 nM, ALK5 inhibitor 1 μM, FIG. 6C
From the text: Explanted lung tissue was obtained from human IPF subjects and inflated with agarose as described in the preceding examples. Biopsy cores were obtained from the agarose-inflated lung tissue. The biopsy cores were subjected to precision slicing to obtain several hundred μm thick. Individual slices were distributed in a multiwell culture plate and cultured for […] under control (DMSO) and test compound conditions. The viability of the slices over the course of culturing was confirmed by WST-1 assay of mitochondrial activity.

recombinant human integrin αvβ6, sequence (P06756 31-992 limits assumed): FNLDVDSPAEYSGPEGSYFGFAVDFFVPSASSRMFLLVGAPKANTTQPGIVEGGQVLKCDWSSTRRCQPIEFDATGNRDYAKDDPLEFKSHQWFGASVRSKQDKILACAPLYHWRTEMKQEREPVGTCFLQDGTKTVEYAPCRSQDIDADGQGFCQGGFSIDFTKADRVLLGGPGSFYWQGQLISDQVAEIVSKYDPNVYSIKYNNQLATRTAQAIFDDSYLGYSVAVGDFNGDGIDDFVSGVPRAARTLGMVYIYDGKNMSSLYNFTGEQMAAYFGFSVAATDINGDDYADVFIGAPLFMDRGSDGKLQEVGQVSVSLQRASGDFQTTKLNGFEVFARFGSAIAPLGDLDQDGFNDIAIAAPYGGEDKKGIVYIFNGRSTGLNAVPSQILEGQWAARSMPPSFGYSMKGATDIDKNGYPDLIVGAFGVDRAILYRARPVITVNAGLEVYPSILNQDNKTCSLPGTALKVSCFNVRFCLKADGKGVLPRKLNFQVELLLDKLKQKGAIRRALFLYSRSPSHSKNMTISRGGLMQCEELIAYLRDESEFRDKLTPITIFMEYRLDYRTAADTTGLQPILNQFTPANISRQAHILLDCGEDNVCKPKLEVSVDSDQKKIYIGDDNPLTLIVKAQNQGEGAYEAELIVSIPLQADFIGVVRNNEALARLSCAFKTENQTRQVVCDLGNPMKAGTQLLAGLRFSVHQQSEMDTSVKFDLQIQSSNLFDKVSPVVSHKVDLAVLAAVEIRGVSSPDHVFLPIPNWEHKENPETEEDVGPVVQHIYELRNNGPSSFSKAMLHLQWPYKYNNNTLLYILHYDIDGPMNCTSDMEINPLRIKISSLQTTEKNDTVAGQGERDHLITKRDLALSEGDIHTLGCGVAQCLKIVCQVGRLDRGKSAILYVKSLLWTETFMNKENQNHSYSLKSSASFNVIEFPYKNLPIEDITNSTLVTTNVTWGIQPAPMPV
recombinant human integrin αvβ6, sequence (P18564 22-707 limits assumed): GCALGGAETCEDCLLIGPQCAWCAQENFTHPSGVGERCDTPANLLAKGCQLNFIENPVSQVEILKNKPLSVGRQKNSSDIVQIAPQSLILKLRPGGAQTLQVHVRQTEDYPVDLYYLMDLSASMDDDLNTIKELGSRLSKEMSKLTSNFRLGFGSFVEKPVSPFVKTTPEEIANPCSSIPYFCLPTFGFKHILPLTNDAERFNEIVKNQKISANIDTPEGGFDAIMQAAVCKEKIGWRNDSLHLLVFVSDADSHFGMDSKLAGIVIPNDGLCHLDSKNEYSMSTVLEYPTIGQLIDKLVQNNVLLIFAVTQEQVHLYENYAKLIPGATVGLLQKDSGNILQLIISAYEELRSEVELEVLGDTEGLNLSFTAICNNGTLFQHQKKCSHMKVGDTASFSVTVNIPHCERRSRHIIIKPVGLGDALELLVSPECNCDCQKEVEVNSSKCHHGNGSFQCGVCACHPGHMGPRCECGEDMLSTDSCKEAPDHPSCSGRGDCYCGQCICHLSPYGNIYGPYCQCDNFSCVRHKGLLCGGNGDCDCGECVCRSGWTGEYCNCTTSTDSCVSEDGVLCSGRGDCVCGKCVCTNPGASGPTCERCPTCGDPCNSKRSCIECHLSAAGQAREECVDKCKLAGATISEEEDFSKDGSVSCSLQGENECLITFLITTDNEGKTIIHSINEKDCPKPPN

IC50 [1]: < 50 nM
Structure (SMILES): O=C(O)[C@H](CCN(CCCCc1ccc2c(n1)NCCC2)CCOc1ccc(F)cc1)Nc1ncc(C(F)(F)F)cn1 [Compound 139, (S)-4-((2-(4-fluorophenoxy)ethyl) (4-(5,6,7,8-tetrahydro-1,8-naphthyridin-2-yl)butyl)amino)-2-((5-(trifluoromethyl)pyrimidin-2-yl)amino) butanoic acid]

Structure (SMILES): COC(=O)c1ccc2c(c1)NC(=O)/C2=C(\Nc1ccc(N(C)C(=O)CN2CCN(C)CC2)cc1)c1ccccc1 [nintedanib]
lung Col1a1 expression [2]: slight increase
lung slice Col1a1 expression (lung Col1a1 expression [3]): slight increase
reduced COL1A1 expression (COL1A1 expression): did not significantly reduce

Structure (SMILES): Cc1ccc(=O)n(-c2ccccc2)c1 [pirfenidone]
lung Col1a1 expression [2]: slight increase
lung slice Col1a1 expression (lung Col1a1 expression [3]): slight increase
reduced COL1A1 expression (COL1A1 expression): did not significantly reduce

Structure (SMILES): CC(C)(C)c1cc(Br)cc(C(CC(=O)O)NC(=O)CNC(=O)c2cc(O)cc(NC3=NCC(O)CN3)c2)c1 [second pan-αv small molecule inhibitor, (3S)-N-[3-hydroxy-5-[(1,4,5,6-tetrahydro-5-hydroxy-2-pyrimidinyl)amino]benzoyl]glycyl-3-[3-bromo-5-(1,1-dimethylethyl)phenyl]-3-alanine]
Type I Collagen gene Col1a1 expression [4]: reduced Type I Collagen gene Col1a1 expression

Structure (SMILES): Cc1cccc(-c2n[nH]cc2-c2ccc(F)c(-c3cnn(CCO)c3)c2)n1 [small molecule ALK5 inhibitor, 4-[2-Fluoro-5-[3-(6-methyl-2-pyridinyl)-1H-pyrazol-4-yl]phenyl]-1H-pyrazole-1-ethanol, reference compound]
Type I Collagen gene Col1a1 expression [4]: greatest decrease
lung Col1a1 expression (lung Col1a1 expression [5]): greatest decrease
lung slice Col1a1 expression (lung Col1a1 expression [3]): substantial, statistically significant (p<0.0001 vs vehicle) decrease
lung Col1a1 expression (lung Col1a1 expression [6]): substantial, statistically significant
